Read-outs that look alike come from different tables or passages of the source.
Tests used:
F. trinervia PEPC = target: T1, F. trinervia PEPC (Flaveria trinervia, UniProt P30694); assay: biochemical; format: biochemical; conditions: for IC50: C4 PEPC
T1 construct: the full-length ppcA gene of PEPC from F. trinervia (EMBL-Bank X61304); made in house; host or cells: Escherichia coli BL21(DE3)
T1 sequence (P30694 1-966): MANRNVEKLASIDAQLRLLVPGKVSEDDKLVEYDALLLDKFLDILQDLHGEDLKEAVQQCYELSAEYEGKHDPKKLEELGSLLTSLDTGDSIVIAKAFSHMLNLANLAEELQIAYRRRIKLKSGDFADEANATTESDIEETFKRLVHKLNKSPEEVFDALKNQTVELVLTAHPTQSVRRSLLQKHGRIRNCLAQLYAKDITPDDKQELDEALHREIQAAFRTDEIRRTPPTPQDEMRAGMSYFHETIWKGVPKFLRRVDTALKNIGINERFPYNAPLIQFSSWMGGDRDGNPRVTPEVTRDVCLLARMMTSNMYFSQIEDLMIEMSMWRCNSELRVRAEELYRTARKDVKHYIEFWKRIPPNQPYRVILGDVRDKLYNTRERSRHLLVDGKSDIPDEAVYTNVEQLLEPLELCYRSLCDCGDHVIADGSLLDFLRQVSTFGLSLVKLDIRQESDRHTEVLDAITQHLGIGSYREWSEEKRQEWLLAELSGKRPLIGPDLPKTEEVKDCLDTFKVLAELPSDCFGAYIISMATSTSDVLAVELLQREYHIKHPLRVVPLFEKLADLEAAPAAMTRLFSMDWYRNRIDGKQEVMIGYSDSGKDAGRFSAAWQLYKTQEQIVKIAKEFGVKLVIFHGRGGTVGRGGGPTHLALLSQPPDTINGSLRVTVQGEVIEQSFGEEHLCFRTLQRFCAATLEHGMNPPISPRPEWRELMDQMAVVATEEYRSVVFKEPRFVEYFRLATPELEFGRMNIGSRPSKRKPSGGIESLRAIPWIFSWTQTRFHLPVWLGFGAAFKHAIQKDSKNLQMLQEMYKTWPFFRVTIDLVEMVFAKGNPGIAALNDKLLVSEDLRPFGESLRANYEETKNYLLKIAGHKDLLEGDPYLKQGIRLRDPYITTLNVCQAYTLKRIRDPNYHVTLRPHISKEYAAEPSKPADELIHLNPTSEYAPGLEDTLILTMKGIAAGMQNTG

[1] = system: Escherichia coli K-12 MG1655; assay: Bacterial growth in microscale cultivation, E. coli; format: cell-based; conditions: for activity at 55 µM / activity at 550 µM / activity at 5 µM / activity at 50 µM / activity at 500 µM: Escherichia coli; for activity at 55 µM / activity at 550 µM / Lag Phase: relative to control
Outline: (§1)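 Inhibitors in DMSO were added to the medium, at a maximum of 400 μM for trans-chalcone and 100 μM for 2'-hydroxychalcone. Cultures were seeded at OD600 0.5, or 0.25 for B. subtilis, and growth was followed as 620 nm backscatter in a BioLector at 1200 rpm. Final backscatter, growth rate and lag phase were compared with DMSO controls.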

Bacillus subtilis 168 = assay: Bacterial growth in microscale cultivation, B. subtilis; format: cell-based; conditions: for activity at 55 µM / activity at 110 µM / activity at 550 µM / Lag Phase: relative to control; for Influence on bacterial growth: highest concentration tested (10× IC50) if not stated otherwise
Outline: as §1

[2] = system: Pseudomonas putida KT2440; assay: Bacterial growth in microscale cultivation, P. putida; format: cell-based; conditions: for activity at 55 µM / activity at 550 µM / activity at 5 µM / activity at 50 µM / activity at 500 µM: Pseudomonas putida; for activity at 55 µM / activity at 550 µM / Lag Phase: relative to control
Outline: as §1

O=C(/C=C/c1ccccc1)c1cc(O)ccc1O [Compound 5, 2′,5′-Dihydroxychalcone]
IC50 (F. trinervia PEPC; read-out: IC50 F. trinervia PEPC): 42.1 ± 11.3 µM
activity at 55 µM ([1]; MG1655, complex medium, 55 µM, read-out: Final Backscatter): 101%
activity at 55 µM ([1]; MG1655, complex medium, 55 µM, read-out: Growth rate): 103%
activity at 550 µM ([1]; MG1655, complex medium, 550 µM, read-out: Final Backscatter): 103%
activity at 55 µM ([1]; MG1655, minimal medium, 55 µM, read-out: Final Backscatter): 99.1%
activity at 55 µM ([1]; MG1655, minimal medium, 55 µM, read-out: Growth rate): 122%
activity at 550 µM ([1]; MG1655, minimal medium, 550 µM, read-out: Final Backscatter): 96.4%
Lag Phase ([1]; complex medium, 55 µM): 103,1%
Lag Phase ([1]; complex medium, 550 µM): 117,2%
Lag Phase ([1]; minimal medium, 55 µM): 105,9%
Lag Phase ([1]; minimal medium, 550 µM): 103,0%
growth (Bacillus subtilis 168; 550 μM, minimal media): abolished growth
activity at 55 µM (Bacillus subtilis 168; Bacillus subtilis, 168, complex medium, 55 µM, read-out: Final Backscatter): 96.2%
activity at 55 µM (Bacillus subtilis 168; Bacillus subtilis, 168, complex medium, 55 µM, read-out: Growth rate): 108%
activity at 110 µM (Bacillus subtilis 168; Bacillus subtilis, 168, complex medium, 110 µM, read-out: Final Backscatter): 98%
activity at 110 µM (Bacillus subtilis 168; Bacillus subtilis, 168, complex medium, 110 µM, read-out: Growth rate): 108%
activity at 550 µM (Bacillus subtilis 168; Bacillus subtilis, 168, complex medium, 550 µM, read-out: Final Backscatter): 76.3%
activity at 55 µM (Bacillus subtilis 168; Bacillus subtilis, 168, minimal medium, 55 µM, read-out: Final Backscatter): 96.4%
activity at 55 µM (Bacillus subtilis 168; Bacillus subtilis, 168, minimal medium, 55 µM, read-out: Growth rate): 107%
activity at 110 µM (Bacillus subtilis 168; Bacillus subtilis, 168, minimal medium, 110 µM, read-out: Final Backscatter): 102%
activity at 110 µM (Bacillus subtilis 168; Bacillus subtilis, 168, minimal medium, 110 µM, read-out: Growth rate): 110%
activity at 550 µM (Bacillus subtilis 168; Bacillus subtilis, 168, minimal medium, 550 µM, read-out: Final Backscatter): 30.5%
Influence on bacterial growth (Bacillus subtilis 168; Complex medium): fbs↓ lag↑
Influence on bacterial growth (Bacillus subtilis 168; Minimal medium): no growth (10× IC50)
Lag Phase (Bacillus subtilis 168; complex medium, 55 µM): 102,3%
Lag Phase (Bacillus subtilis 168; complex medium, 110 µM): 109,3%
Lag Phase (Bacillus subtilis 168; complex medium, 550 µM): 177,1%
Lag Phase (Bacillus subtilis 168; minimal medium, 55 µM): 103,5%
Lag Phase (Bacillus subtilis 168; minimal medium, 110 µM): 108,5%
activity at 55 µM ([2]; KT2440, complex medium, 55 µM, read-out: Final Backscatter): 98.5%
activity at 55 µM ([2]; KT2440, complex medium, 55 µM, read-out: Growth rate): 105%
activity at 550 µM ([2]; KT2440, complex medium, 550 µM, read-out: Final Backscatter): 94.4%
activity at 550 µM ([2]; KT2440, complex medium, 550 µM, read-out: Growth rate): 118%
activity at 55 µM ([2]; KT2440, minimal medium, 55 µM, read-out: Final Backscatter): 95.5%
activity at 55 µM ([2]; KT2440, minimal medium, 55 µM, read-out: Growth rate): 99.4%
activity at 550 µM ([2]; KT2440, minimal medium, 550 µM, read-out: Final Backscatter): 96.7%
activity at 550 µM ([2]; KT2440, minimal medium, 550 µM, read-out: Growth rate): 101%
Lag Phase ([2]; complex medium, 55 µM): 99,1%
Lag Phase ([2]; complex medium, 550 µM): 105,0%
Lag Phase ([2]; minimal medium, 55 µM): 101,0%
Lag Phase ([2]; minimal medium, 550 µM): 98,0%

O=C(/C=C/c1ccccc1)c1ccccc1O [Compound 2, 2′-Hydroxychalcone]
Selectivity C4/C3 (F. trinervia PEPC; C4 PEPC over C3 isoform): 1.5 fold
IC50 (F. trinervia PEPC; IC50 F. trinervia PEPC): 51.9 ± 15 µM
activity at 5 µM ([1]; MG1655, read-out: Final Backscatter, complex medium, 5 µM, relative to control): 100%
activity at 50 µM ([1]; MG1655, read-out: Final Backscatter, complex medium, 50 µM, relative to control): 103%
activity at 500 µM ([1]; MG1655, read-out: Final Backscatter, complex medium, 500 µM, relative to control): 98.1%
activity at 5 µM ([1]; MG1655, read-out: Final Backscatter, minimal medium, 5 µM, relative to control): 100%
activity at 50 µM ([1]; MG1655, read-out: Final Backscatter, minimal medium, 50 µM, relative to control): 97%
activity at 500 µM ([1]; MG1655, read-out: Final Backscatter, minimal medium, 500 µM, relative to control): 101%
activity at 5 µM ([1]; MG1655, read-out: Growth rate, complex medium, 5 µM, relative to control): 97.7%
activity at 50 µM ([1]; MG1655, read-out: Growth rate, complex medium, 50 µM, relative to control): 86.6%
activity at 5 µM ([1]; MG1655, read-out: Growth rate, minimal medium, 5 µM, relative to control): 102%
activity at 50 µM ([1]; MG1655, read-out: Growth rate, minimal medium, 50 µM, relative to control): 105%
Lag Phase ([1]; complex medium, 5 µM): 95,5%
Lag Phase ([1]; complex medium, 50 µM): 100,0%
Lag Phase ([1]; minimal medium, 5 µM): 89,4%
Lag Phase ([1]; minimal medium, 50 µM): 91,6%
activity at 5 µM (Bacillus subtilis 168; Bacillus subtilis, 168, read-out: Final Backscatter, complex medium, 5 µM, relative to control): 96.4%
activity at 50 µM (Bacillus subtilis 168; Bacillus subtilis, 168, read-out: Final Backscatter, complex medium, 50 µM, relative to control): 97.6%
activity at 100 µM (Bacillus subtilis 168; Bacillus subtilis, 168, read-out: Final Backscatter, complex medium, 100 µM, relative to control): 112%
activity at 500 µM (Bacillus subtilis 168; Bacillus subtilis, 168, read-out: Final Backscatter, complex medium, 500 µM, relative to control): 75.6%
activity at 5 µM (Bacillus subtilis 168; Bacillus subtilis, 168, read-out: Final Backscatter, minimal medium, 5 µM, relative to control): 97.9%
activity at 50 µM (Bacillus subtilis 168; Bacillus subtilis, 168, read-out: Final Backscatter, minimal medium, 50 µM, relative to control): 95.5%
activity at 100 µM (Bacillus subtilis 168; Bacillus subtilis, 168, read-out: Final Backscatter, minimal medium, 100 µM, relative to control): 101%
activity at 500 µM (Bacillus subtilis 168; Bacillus subtilis, 168, read-out: Final Backscatter, minimal medium, 500 µM, relative to control): 70%
activity at 5 µM (Bacillus subtilis 168; Bacillus subtilis, 168, read-out: Growth rate, complex medium, 5 µM, relative to control): 91.2%
activity at 50 µM (Bacillus subtilis 168; Bacillus subtilis, 168, read-out: Growth rate, complex medium, 50 µM, relative to control): 97.7%
activity at 100 µM (Bacillus subtilis 168; Bacillus subtilis, 168, read-out: Growth rate, complex medium, 100 µM, relative to control): 118%
activity at 5 µM (Bacillus subtilis 168; Bacillus subtilis, 168, read-out: Growth rate, minimal medium, 5 µM, relative to control): 96.8%
activity at 50 µM (Bacillus subtilis 168; Bacillus subtilis, 168, read-out: Growth rate, minimal medium, 50 µM, relative to control): 113%
activity at 100 µM (Bacillus subtilis 168; Bacillus subtilis, 168, read-out: Growth rate, minimal medium, 100 µM, relative to control): 134%
activity at 500 µM (Bacillus subtilis 168; Bacillus subtilis, 168, read-out: Growth rate, minimal medium, 500 µM, relative to control): 98.7%
Lag Phase (Bacillus subtilis 168; complex medium, 5 µM): 89,8%
Lag Phase (Bacillus subtilis 168; complex medium, 50 µM): 100,0%
Lag Phase (Bacillus subtilis 168; complex medium, 100 µM): 95,4%
Lag Phase (Bacillus subtilis 168; minimal medium, 5 µM): 99,5%
Lag Phase (Bacillus subtilis 168; minimal medium, 50 µM): 108,5%
Lag Phase (Bacillus subtilis 168; minimal medium, 100 µM): 107,8%
Lag Phase (Bacillus subtilis 168; minimal medium, 500 µM): 143,1%
activity at 5 µM ([2]; KT2440, read-out: Final Backscatter, complex medium, 5 µM, relative to control): 98%
activity at 50 µM ([2]; KT2440, read-out: Final Backscatter, complex medium, 50 µM, relative to control): 101%
activity at 500 µM ([2]; KT2440, read-out: Final Backscatter, complex medium, 500 µM, relative to control): 102%
activity at 5 µM ([2]; KT2440, read-out: Final Backscatter, minimal medium, 5 µM, relative to control): 96.6%
activity at 50 µM ([2]; KT2440, read-out: Final Backscatter, minimal medium, 50 µM, relative to control): 98%
activity at 500 µM ([2]; KT2440, read-out: Final Backscatter, minimal medium, 500 µM, relative to control): 111%
activity at 5 µM ([2]; KT2440, read-out: Growth rate, complex medium, 5 µM, relative to control): 103%
activity at 50 µM ([2]; KT2440, read-out: Growth rate, complex medium, 50 µM, relative to control): 102%
activity at 500 µM ([2]; KT2440, read-out: Growth rate, complex medium, 500 µM, relative to control): 189%
activity at 5 µM ([2]; KT2440, read-out: Growth rate, minimal medium, 5 µM, relative to control): 96%
activity at 50 µM ([2]; KT2440, read-out: Growth rate, minimal medium, 50 µM, relative to control): 99.3%
activity at 500 µM ([2]; KT2440, read-out: Growth rate, minimal medium, 500 µM, relative to control): 153%
Lag Phase ([2]; complex medium, 5 µM): 101,0%
Lag Phase ([2]; complex medium, 50 µM): 102,6%
Lag Phase ([2]; complex medium, 500 µM): 110,8%
Lag Phase ([2]; minimal medium, 5 µM): 100,0%
Lag Phase ([2]; minimal medium, 50 µM): 100,6%
Lag Phase ([2]; minimal medium, 500 µM): 100,0%
